Patent US8841233B2, “Herbicidal compositions comprising 4-amino-3-chloro-5-fluoro-6-(4-chloro-2-fluoro-3-methoxyphenyl) pyridine-2-carboxylic acid or a derivative thereof and 4-hydroxyphenyl-pyruvate dioxygenase (HPPD) inhibitors” (Dow Agrosciences LLC, priority 2012, dated 2014)

Assays:
LEFCH = test: Post-emergence foliar-applied weed control, greenhouse (Example I); format: in vivo, Leptochloa chinensis (L.) Nees
Text: Evaluation of Post-emergence Foliar-Applied Herbicidal Mixtures for Weed Control in Direct Seeded Rice
Seeds or nutlets of the desired test plant species were planted in a soil matrix prepared by mixing a loam or sandy loam soil (e.g., 28.6 percent silt, 18.8 percent clay, and 52.6 percent sand, with a pH of about 5.8 and an organic matter content of about 1.8 percent) and calcareous grit in an 80 to 20 ratio. The soil matrix was contained in plastic pots with a volume of 1 quart and a surface area of 83.6 square centimeters (cm^2). When required to ensure good germination and healthy plants, a fungicide treatment and/or other chemical or physical treatment was applied. The plants were grown for 8-22 days in a greenhouse with an approximate 14 h photoperiod which was maintained at about 29° C. during the day and 26° C. during the night. Nutrients (Peters Excel® 15-5-15 5-Ca 2-Mg and iron chelate) were applied in the irrigation solution as needed and water was added on a regular basis. Supplemental lighting was provided with overhead metal halide 1000-Watt lamps as necessary. The plants were employed for testing when they reached the first through fourth true leaf stage. […]
(§1) Treatment requirements were calculated based upon the rates being tested, the concentration of active ingredient or acid equivalent in the formulation, and a 12 mL application volume at a rate of 187 L/ha.
For treatments comprised of formulated compounds, measured amounts of compounds were placed individually in 25 mL glass vials and diluted in a volume of 1.25% (v/v) Agri-Dex® crop oil concentrated to obtain 12× stock solutions. […]
For treatments comprised of formulated and technical compounds, weighed amounts of the technical materials were placed individually in 25 mL glass vials and dissolved in a volume of 97:3 v/v acetone/DMSO to obtain 12× stock solutions, and measured amounts of the formulated compounds were placed individually in 25 mL glass vials and diluted in a volume of 1.5% (v/v) crop oil concentrate or water to obtain 12× stock solutions. […]

XANST = test: Pre-emergence soil-applied weed control, greenhouse (Example III); format: in vivo, Xanthium strumarium L.
Text: Evaluation of Pre-emergence Soil-Applied Herbicidal Mixtures for Weed Control
Seeds or nutlets of the desired test plant species were planted in a soil matrix prepared by mixing a loam soil (32 percent silt, 23 percent clay, and 45 percent sand, with a pH of about 6.5 and an organic matter content of about 1.9 percent) and calcareous grit in an 80 to 20 ratio. The soil matrix was contained in plastic pots with a volume of 1 quart and a surface area of 83.6 square centimeters (cm^2).
Treatments consisted of the benzyl ester of 4-amino-3-chloro-5-fluoro-6-(4-chloro-2-fluoro-3-methoxy-phenyl)pyridine-2-carboxylic acid (compound A) formulated as an SC (suspension concentrate) and various herbicidal components alone and in combination. Forms of compound A were applied on an acid equivalent basis.
Other herbicidal components were applied on an acid equivalent or active ingredient basis and included the 4-hydroxyphenyl pyruvate dioxygenase (HPPD)-inhibiting herbicide, isoxaflutole, formulated as Balance Pro®.
as §1
For treatments comprised of formulated compounds, measured amounts of compounds were placed individually in 25 mL glass vials and diluted in a volume of 1.25% (v/v) Agri-Dex® crop oil concentrate (COC) to obtain 12× stock solutions. […] Application solutions were prepared by adding an appropriate amount of each stock solution (e.g., 1 mL) and diluted to the appropriate final concentrations with the addition of 10 mL of an aqueous mixture of 1.25% (v/v) COC so that the final spray solutions contained 1.25% (v/v) COC.
All stock solutions and applications solutions were visually inspected for compound compatibility prior to application. Spray solutions were applied to the soil with an overhead Mandel track sprayer equipped with a 8002E nozzles calibrated to deliver 187 L/ha over an application area of 0.503 m^2 at a spray height of 18 inches (46 cm) above average pot height. Control pots were sprayed in the same manner with the solvent blank.
The treated and control pots were placed in a greenhouse and top watered as needed. When required to ensure good germination and healthy plants, a fungicide treatment and/or other chemical or physical treatment was applied. […] After approximately 4 weeks, the condition of the test plants as compared with that of the untreated plants was determined visually and scored on a scale of 0 to 100 percent where 0 corresponds to no injury or growth inhibition and 100 corresponds to complete kill. […]

SMILES | Visual Weed Control (%) - 21 DAA LEFCH Obs (LEFCH; 17.5 gae/ha) [%] | Visual Weed Control (%) - 21 DAA LEFCH Obs (LEFCH; 35 gae/ha) [%] | Visual Weed Control (%) - 32 DAA XANST Obs (XANST; 8 gae/ha) [%] | Visual Weed Control (%) - 32 DAA XANST Obs (XANST; 16 gae/ha) [%] | Visual Weed Control (%) - 32 DAA XANST Obs (XANST; 32 gae/ha) [%]
COc1c(Cl)ccc(-c2nc(C(=O)O)c(Cl)c(N)c2F)c1F [Compound A Acid, 4-amino-3-chloro-6-(4-chloro-2-fluoro-3-methoxyphenyl)-5-fluoropyridine-2-carboxylic acid] | 10 | 60 |  |  | 
COc1c(Cl)ccc(-c2nc(C(=O)OCc3ccccc3)c(Cl)c(N)c2F)c1F [Compound A Benzyl Ester, benzyl ester of 4-amino-3-chloro-5-fluoro-6-(4-chloro-2-fluoro-3-methoxy-phenyl)pyridine-2-carboxylic acid] |  |  | 33 | 35 | 65
